Assay results published in US20250197425A1, “2,6,9-TRISUBSTITUTED PURINES” (ASTRAZENECA AB, priority 2022, published 2025).
Converted amounts (≈) assume the structure as drawn.

Columns and labels:
MCF-7 cells = assay: Cellular proliferation EdU assay, MCF-7; type: cell-based; details: Homo sapiens, MCF7, 48 h, EdU assay, two days; read-out: MCF-7 IC50
Method: (§1) Compounds were tested to assess inhibition of cellular proliferation in the breast cancer cell line MCF-7 and the CCNE1-amplified ovarian cell line OVCAR3.
(§2) MCF-7 and OVCAR3 cells in RPMI supplemented with 10% Fetal bovine serum were seeded into 384-well plates (Greiner, Kremsmunster, Austria; 781091), 30 μL/well, using a WellMate. The MCF7 and OVCAR3 cells were seeded at 800 and 1200 cells/well, respectively. Test compounds were added to the wells using an Echo 555 liquid handler and the plates were placed in incubator maintained at 37° C. and 5% CO2 and incubated for two days. On Day 2, an EdU assay was performed following the manufacturer's protocol (Thermo Fisher, C10351). The cells were read on an Acumen eX3 instrument. The IC50 values of test compounds were determined in Genedata by assessing the ratio of signal intensity at 488 nm to the area of signal at 405 nm.

[1] = CLint assessment in human liver microsomes (HLM); type: in vitro ADME; details: 1 μM
Method: After a preincubation with NADPH for 8 minutes, reactions were initiated through the addition of the test compound (final volume 250 μl) and incubated at 37° C. in a water bath for 30 minutes. […] Samples were shaken at 800 rpm for 2 minutes and centrifuged at 4000 rpm for 20 minutes at 4° C. to pellet precipitated protein. The supernatant fraction was diluted 1:5 with deionized water, shaken at 1000 rpm for 2 minutes, and further diluted 1:1 with deionized water. Samples were analyzed by LC-MS/MS. The t1/2 and the CLint of the compounds incubated in the LM, HLM, and HμREL assays as described above were calculated according to the following equations: […] where V (μl/×10^6 cells or mg protein) is the incubation volume (μl) divided by the number of cells (×10^6) or microsomal protein content (mg) in the incubation.

CDK4:CCND1 = CDK4:CCND1 (Homo sapiens (Human), UniProt P11802); assay: NanoBRET assay in MCF-7 cells, CDK4; type: cell-based; details: NanoBRET, transfected MCF-7 cells, 2 hours; n = 1 or average; read-out: CDK4 IC50
Chain of CDK4:CCND1 (P11802 whole entry): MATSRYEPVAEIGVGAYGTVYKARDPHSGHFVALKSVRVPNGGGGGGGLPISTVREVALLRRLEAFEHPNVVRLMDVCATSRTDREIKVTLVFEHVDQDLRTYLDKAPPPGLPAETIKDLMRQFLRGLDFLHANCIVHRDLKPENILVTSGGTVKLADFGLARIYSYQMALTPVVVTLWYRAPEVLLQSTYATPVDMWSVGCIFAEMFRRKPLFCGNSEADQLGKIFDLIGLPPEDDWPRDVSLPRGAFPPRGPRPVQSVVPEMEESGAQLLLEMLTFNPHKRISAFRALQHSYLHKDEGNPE
Chain of CDK4:CCND1 (P24385 whole entry partner): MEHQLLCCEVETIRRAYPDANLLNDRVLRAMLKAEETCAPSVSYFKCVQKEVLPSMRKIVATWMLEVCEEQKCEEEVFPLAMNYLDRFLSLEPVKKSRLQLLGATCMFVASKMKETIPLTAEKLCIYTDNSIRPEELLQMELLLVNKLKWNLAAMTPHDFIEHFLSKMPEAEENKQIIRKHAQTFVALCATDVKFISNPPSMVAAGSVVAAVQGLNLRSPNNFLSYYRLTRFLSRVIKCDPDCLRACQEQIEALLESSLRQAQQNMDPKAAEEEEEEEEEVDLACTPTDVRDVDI
Method: (§3) Compounds were tested in breast cancer cell line MCF-7 to assess inhibition of CDK1, CDK2, and CDK4 activity. MCF-7 cells transiently transfected with CDK1:CCNB1, CDK2:CCNE1, or CDK4:CCND1 were harvested at a density of 1E5 cells/mL in complete media, seeded 20 μL/well into 384-well Greiner 784080 plates using a Multidrop Combi, and incubated overnight at 37° C. and 5% CO2. The next day media were evacuated from the wells using the Bluewasher centrifugal plate washer (Bluecatbio) and 10 μL/well phenol red free OptiMEM was then added using a Multidrop Combi. […] Immediately after compound addition, a Tecan HP300 dispensor was used to dispense the relevant NanoBRET™ tracer to the CDK1 wells (12.5 nl, 400 μM, NanoBRET™ TE Tracer K-9), the CDK2 wells (12.5 nl, 200 μM, NanoBRET™ TE Tracer K-9), and the CDK4 wells (8 nl, 100 μM, NanoBRET™ TE Tracer K-7) and the plates were incubated for 2 hours at 37° C. and 5% CO2. The plates were allowed to cool for 10 minutes at room temperature and 5 μL/well of TE Nano-Glo®Substrate/Inhibitor at 2.4 μM and 1:500 respectively (N2162 Promega) was added. The plates were incubated in subdued lighting for 10 minutes and then read on a Pherastar FS plate reader (BMG Technologies) using a NanoBRET™ filter module (460±80 nm/610 nm-LP). The ratio values were normalized to controls and the IC50 values of test compounds determined using Genedata Screener software.

OVCAR3 cells = assay: Cellular proliferation EdU assay, OVCAR3; type: cell-based, human; details: Homo sapiens, OVCAR-3, 48 h, EdU assay, two days; read-out: OVCAR3 IC50
Method: as §1, §2

CDK2:CCNE1 = CDK2:CCNE1 (Homo sapiens (Human), UniProt P24941); assay: NanoBRET assay in MCF-7 cells, CDK2; type: cell-based; details: transfected MCF-7 cells, 2 hours, n = 1 or average
Method: as §3, with “MCF-7 cells transiently transfected with CDK1:CCNB1, CDK2:CCNE1, or CDK4:CCND1 were harvested at a density of 1E5 cells/mL in complete media, seeded 20 μL/well into 384-well Greiner 784080 plates using a Multidrop Combi, and incubated overnight at 37° C. and 5% CO2.” left out, “The plates were allowed to cool for 10 minutes at room temperature and 5 μL/well of TE Nano-Glo®Substrate/Inhibitor at 2.4 μM and 1:500 respectively (N2162 Promega) was added.” left out

CDK1:CCNB1 = CDK1:CCNB1 (Homo sapiens (Human), UniProt P06493); assay: NanoBRET assay in MCF-7 cells, CDK1; type: cell-based; details: NanoBRET, transfected MCF-7 cells, 2 hours; n = 1 or average; read-out: CDK1 IC50
Chain of CDK1:CCNB1 (P06493 whole entry): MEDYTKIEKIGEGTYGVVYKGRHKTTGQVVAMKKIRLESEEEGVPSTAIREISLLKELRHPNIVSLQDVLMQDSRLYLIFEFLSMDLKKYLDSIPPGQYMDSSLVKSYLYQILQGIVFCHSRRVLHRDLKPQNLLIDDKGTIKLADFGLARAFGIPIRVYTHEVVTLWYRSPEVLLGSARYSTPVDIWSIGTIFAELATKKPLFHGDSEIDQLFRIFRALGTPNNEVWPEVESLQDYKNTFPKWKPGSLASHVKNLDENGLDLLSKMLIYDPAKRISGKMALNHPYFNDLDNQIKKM
Chain of CDK1:CCNB1 (P14635 whole entry partner): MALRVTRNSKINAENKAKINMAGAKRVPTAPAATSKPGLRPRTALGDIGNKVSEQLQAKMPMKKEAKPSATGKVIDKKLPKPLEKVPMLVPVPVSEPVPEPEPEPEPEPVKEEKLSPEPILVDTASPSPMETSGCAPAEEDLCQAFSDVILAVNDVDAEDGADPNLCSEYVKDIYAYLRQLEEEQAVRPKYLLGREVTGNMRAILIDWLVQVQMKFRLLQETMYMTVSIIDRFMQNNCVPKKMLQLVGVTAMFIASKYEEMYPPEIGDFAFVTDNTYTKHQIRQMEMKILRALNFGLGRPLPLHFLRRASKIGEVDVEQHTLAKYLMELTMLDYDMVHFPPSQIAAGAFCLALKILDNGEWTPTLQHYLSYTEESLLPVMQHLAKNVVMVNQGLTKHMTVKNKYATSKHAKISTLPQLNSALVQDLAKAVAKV
Method: as §3

[2] = Aqueous thermodynamic solubility, shake-flask; type: physicochemical; details: aqueous phosphate buffer, 25 °C, pH 7.4, aqueous buffer, thermodynamic from solid, phosphate buffer 0.1 M, pH 7.4, 24 hours
Method: The DMSO was evaporated and the dried compounds were equilibrated in glass vials in aqueous phosphate buffer (0.1 M, pH 7.4) for 24 hours at 25° C. under constant stirring. The portion with the dissolved compound was then separated from the remainder through a double centrifugation with a tip wash in between to ensure that no residues of the dried compound were interfering. The solutions were diluted with purified water before quantification using UPLC/MS/MS.

[3] = test system: POLR2A Ser2 phosphorylation (CDK9); assay: POLR2A Ser2 phosphorylation imaging assay in MCF-7 cells; type: cell-based; details: Homo sapiens, MCF7, 2 h, MCF-7 cells, 2 hours; read-out: POLR2A Ser2 phosphorylation IC50
Method: Compounds were tested to assess their effect on CDK9 activity in a cellular context. […] During the cell cycle, CDK9 is a component of a multiprotein complex that phosphorylates POLR2A Ser2 which results in transcription elongation.
[…] were fixed by addition of 40 μL/well of 8% paraformaldehyde and incubated for 10 minutes at room temperature. The plates were washed three times with 50 μL/well PBS using a Biotek EL406 plate washer and then permeabilized for 10 minutes at room temperature in 0.3% Triton X100 in PBS. After washing as before, the plates were blocked using 30 μL/well of 2% BSA (w/v) in PBS-T for over 30 minutes at room temperature. […] After washing in PBS as before, leaving each well in 40 μL of PBS, the plates were sealed and imaged on a Cell Insight imaging system (Thermo) with a 10× objective and 2 fields of view per well. POLR2A Ser2levels were normalized to controls and the IC50 values of test compounds determined using Genedata Screener software.

[4] = test system: NPM phosphorylation (Thr199, CDK2-cyclin E complex); assay: NPM phosphorylation imaging assay in MCF-7 cells; type: cell-based; details: Homo sapiens, 4N DNA cells
Method: Compounds were tested to assess the effects of CDK2 inhibition in a cellular context. […] During the cell cycle, the CDK2-cyclin E complex phosphorylates NPM at Thr199 which is a prerequisite step for initiation of centrosome duplication.
The cells were fixed by addition of 40 μL/well of 8% paraformaldehyde and incubated at room temperature for 10 minutes. The plates were washed three times with 50 μL/well PBS using a Biotek EL406 plate washer and then permeabilized for 10 minutes at room temperature in 0.3% Triton X100 in PBS. After washing as before, the plates were blocked using 30 μL/well of 2% BSA (w/v) in PBS-T for at least 30 minutes at room temperature. […] Cells containing 4N DNA were selected using the Hoechst staining. Phospho-NPM levels were normalized to controls and the IC50 values of test compounds determined using Genedata Screener software.

| HLM CLint [1] [µL/min/mg] | solubility at 24 h [2] [µM] | IC50 ([4]; MCF7, 2 h) [nM] | Compound | IC50 (MCF-7 cells) [nM] | IC50 (CDK4:CCND1) [nM] | IC50 (OVCAR3 cells) [nM] | IC50 (CDK2:CCNE1) [nM] | IC50 (CDK1:CCNB1) [nM] | IC50 [3] [nM] | IC50 ([4]; MCF7, 2 hours) [nM] |
| --- | --- | --- | --- | --- | --- | --- | --- | --- | --- | --- |
| 15.2 | 101 (≈ 44.7 µg/mL) | 435 | CCNS(=O)(=O)N1C[C@@H](F)[C@H](Nc2nc(N[C@@H](CO)C3CC3)nc3c2ncn3C)C1 (relative stereo) [Example 26, (3R*,4R*)-3-((2-(((R)-1-cyclopropyl-2-hydroxyethyl)amino)-9-methyl-9H-purin-6-yl)amino)-N-ethyl-4-fluoropyrrolidine-1-sulfonamide] | 960 | 8100 | 496 | 39 | 651 | 11400 |  |
| 21.1 | 300 (≈ 133 µg/mL) | 151 | CC[C@H](Nc1nc(N[C@@H]2CN(S(=O)(=O)NC)C[C@H]2F)c2ncn(CC)c2n1)[C@@H](C)O (relative stereo) [Example 52, (3R*,4R*)-3-((9-ethyl-2-(((2R,3S)-2-hydroxypentan-3-yl)amino)-9H-purin-6-yl)amino)-4-fluoro-N-methylpyrrolidine-1-sulfonamide] | 1020 | 16800 | 252 | 21 | 1200 | 11100 |  |
| 39.8 | > 1000 | 299 | CC[C@H](Nc1nc(N[C@@H]2CN(S(=O)(=O)c3ncc[nH]3)C[C@H]2F)c2ncn(C)c2n1)[C@@H](C)O (relative stereo) [Example 56, (2R,3S)-3-((6-(((3R*,4R*)-1-((1H-imidazol-2-yl)sulfonyl)-4-fluoropyrrolidin-3-yl)amino)-9-methyl-9H-purin-2-yl)amino)pentan-2-ol] | 1180 | 22000 | 519 | 69 | 1500 | 23900 |  |
|  |  |  | CC(C)[C@H](CO)Nc1nc(N[C@@H]2CN(S(C)(=O)=O)C[C@H]2F)c2ncn(C(C)C)c2n1 [Example 33, (R)-2-((6-(((3R,4R)-4-fluoro-1-(methylsulfonyl)pyrrolidin-3-yl)amino)-9-isopropyl-9H-purin-2-yl)amino)-3-methylbutan-1-ol] | 2970 | 8100 | 880 | 26 | 5750 | > 30000 | 752 |
|  |  |  | CC[C@H](CO)Nc1nc(N[C@H]2CCN(S(C)(=O)=O)C2)c2ncn(CC)c2n1 [Example 38, (R)-2-((9-ethyl-6-(((S)-1-(methylsulfonyl)pyrrolidin-3-yl)amino)-9H-purin-2-yl)amino)butan-1-ol] | 2310 | 6000 | 782 | 21 | 1040 | > 30000 | 392 |

| Compound | HLM CLint [1] [µL/min/mg] | solubility at 24 h [2] [µM] | IC50 ([4]; MCF7, 2 h) [nM] | IC50 (MCF-7 cells) [nM] | IC50 (CDK4:CCND1) [nM] | IC50 (OVCAR3 cells) [nM] | IC50 (CDK2:CCNE1) [nM] | IC50 (CDK1:CCNB1) [nM] | IC50 [3] [nM] | IC50 ([4]; MCF7, 2 hours) [nM] |
| --- | --- | --- | --- | --- | --- | --- | --- | --- | --- | --- |
| CCn1cnc2c(N[C@H]3CCN(S(=O)(=O)NC)C3)nc(N[C@@H](CC(F)(F)F)[C@@H](C)O)nc21 (relative stereo) [Example 21, (S)-3-((9-ethyl-2-(((3S*,4R*)-1,1,1-trifluoro-4-hydroxypentan-3-yl)-amino)-9H-purin-6-yl)amino)-N-methylpyrrolidine-1-sulfonamide] | 34.1 | 606 (≈ 291 µg/mL) |  | 1450 | > 29700 | 578 | 49 | 3830 | > 30000 | 326 |
| CC[C@H](Nc1nc(N[C@H]2CCN(S(=O)(=O)NC)C2)c2ncn(C(F)F)c2n1)[C@@H](C)O [Example 55, (S)-3-((9-(difluoromethyl)-2-(((2R,3S)-2-hydroxypentan-3-yl)amino)-9H-purin-6-yl)amino)-N-methylpyrrolidine-1-sulfonamide] |  | > 1000 |  | 514 |  | 147 |  |  | 14400 | 142 |
